Reference: patent US11628228B2, “99mTc-labeled isonitrile-containing glucose derivative and preparation method and use thereof” (Beijing Shihong Pharmaceutical Research Center, priority 2017, dated 2023)

Columns and labels:
[1] = test system: S180-bearing mice; experiment: Bio-distribution in tumor-bearing mice; type: in vivo; details: for Blood uptake / Bone uptake / Heart uptake / Kidney uptake / Liver uptake / Lung uptake / Muscle uptake / Small intestine uptake / Spleen uptake / Stomach uptake / Tumor uptake / Tumor/blood ratio / Tumor/muscle ratio: S180-bearing mice, tail vein; for Tumor/liver ratio: tumor-bearing mice, 0.5 hour after injection
Description: The labeled solution (0.1 mL, 74 KBq) is injected into mice through the tail vein, and the injection time is recorded. Then the mice were killed by cervical dislocation at different time phases (30 minutes, 60 minutes, and 120 minutes), five mice for each time phase, and the organs of interest such as heart, liver, lung, kidney, spleen, stomach, muscle, blood and tumor are taken out after dissection, and measured with a γ-counter for the radioactive count of each organ. The uptake value of each organ is obtained by calculation based on the mass of the organ (with % ID/g as the unit).

[2] = Determination of the lipid-water partition coefficient (n-octanol/PBS); type: physicochemical
Description: One hundred μL of the labeled substance solution (50 μCi) diluted with normal saline is placed into a 2 mL centrifuge tube, and then 800 μL of n-octanol and 700 μL of PBS are added to the centrifuge tube, which is subsequently covered with a cap. The centrifuge tube is vortexed for 3 minutes (2500 r/minute), allowed to stand until the solution is layered, and centrifuged in a centrifuge for 3 minutes (3000 r/minute). Three samples of the upper organic phase and three samples of the lower aqueous phase are taken, each 100 μL, and detected in a γ-counter for the radioactive counts of the organic and aqueous phases, respectively.

[3] = test system: tumor-bearing mice; experiment: SPECT imaging in tumor-bearing mice; type: in vivo; details: 0.2 mL, 700 μCi tail vein, imaging 1 hour later
Description: The prepared [^99mTc-(CN3DG)6]^+ or [^99mTc-(CN5DG)6]^+ (0.2 mL, 700 μCi) is injected into tumor-bearing mice through tail vein, and SPECT imaging is performed 1 hour later.

[4] = test system: tumor-bearing mice; details: 0.5 hour after injection, literature; cited from earlier work

O=C(CCCCC[N+]#[C][99Tc-5]([C]#[N+]CCCCCC(=O)NC1C(O)OC(CO)C(O)C1O)([C]#[N+]CCCCCC(=O)NC1C(O)OC(CO)C(O)C1O)([C]#[N+]CCCCCC(=O)NC1C(O)OC(CO)C(O)C1O)([C]#[N+]CCCCCC(=O)NC1C(O)OC(CO)C(O)C1O)[C]#[N+]CCCCCC(=O)NC1C(O)OC(CO)C(O)C1O)NC1C(O)OC(CO)C(O)C1O (centres unmarked) [[^99mTc-(CN5DG)6]^+]
Blood uptake ([1]; 30 min): 1.58 ± 0.15 % ID/g | Bone uptake ([1]; 30 min): 0.72 ± 0.11 % ID/g | Heart uptake ([1]; 30 min): 0.64 ± 0.12 % ID/g | Kidney uptake ([1]; 30 min): 4.69 ± 0.76 % ID/g | Liver uptake ([1]; 30 min): 0.61 ± 0.07 % ID/g | Lung uptake ([1]; 30 min): 1.58 ± 0.18 % ID/g | Muscle uptake ([1]; 30 min): 0.46 ± 0.05 % ID/g | Small intestine uptake ([1]; 30 min): 0.74 ± 0.09 % ID/g | Spleen uptake ([1]; 30 min): 0.51 ± 0.08 % ID/g | Stomach uptake ([1]; 30 min): 0.50 ± 0.09 % ID/g | Tumor uptake ([1]; 30 min): 1.83 ± 0.18 % ID/g | Tumor/blood ratio ([1]; 30 min): 1.16 | Tumor/muscle ratio ([1]; 30 min): 3.98 | Blood uptake ([1]; 60 min): 0.55 ± 0.17 % ID/g | Bone uptake ([1]; 60 min): 0.41 ± 0.15 % ID/g | Heart uptake ([1]; 60 min): 0.41 ± 0.02 % ID/g | Kidney uptake ([1]; 60 min): 2.68 ± 0.32 % ID/g | Liver uptake ([1]; 60 min): 0.38 ± 0.08 % ID/g | Lung uptake ([1]; 60 min): 0.59 ± 0.16 % ID/g | Muscle uptake ([1]; 60 min): 0.27 ± 0.10 % ID/g | Small intestine uptake ([1]; 60 min): 0.43 ± 0.07 % ID/g | Spleen uptake ([1]; 60 min): 0.28 ± 0.07 % ID/g | Stomach uptake ([1]; 60 min): 0.37 ± 0.14 % ID/g | Tumor uptake ([1]; 60 min): 1.07 ± 0.21 % ID/g | Tumor/blood ratio ([1]; 60 min): 1.94 | Tumor/muscle ratio ([1]; 60 min): 3.96 | Blood uptake ([1]; 120 min): 0.16 ± 0.02 % ID/g | Bone uptake ([1]; 120 min): 0.15 ± 0.04 % ID/g | Heart uptake ([1]; 120 min): 0.22 ± 0.04 % ID/g | Kidney uptake ([1]; 120 min): 2.07 ± 0.13 % ID/g | Liver uptake ([1]; 120 min): 0.34 ± 0.08 % ID/g | Lung uptake ([1]; 120 min): 0.29 ± 0.06 % ID/g | Muscle uptake ([1]; 120 min): 0.18 ± 0.03 % ID/g | Small intestine uptake ([1]; 120 min): 0.22 ± 0.08 % ID/g | Spleen uptake ([1]; 120 min): 0.17 ± 0.02 % ID/g | Stomach uptake ([1]; 120 min): 0.35 ± 0.06 % ID/g | Tumor uptake ([1]; 120 min): 0.75 ± 0.07 % ID/g | Tumor/blood ratio ([1]; 120 min): 4.69 | Tumor/muscle ratio ([1]; 120 min): 4.16 | Tumor/liver ratio [1]: 3.00 | Log P (lipid-water partition coefficient) [2]: −3.57±0.35 | SPECT imaging: aggregation at the tumor sites [3]: evident aggregation at the tumor sites | SPECT imaging: concentration in kidney [3]: relatively high concentration in kidney | SPECT imaging: uptake in other organs [3]: relatively low

O=C(CCCC[N+]#[C][99Tc-5]([C]#[N+]CCCCC(=O)NC1C(O)OC(CO)C(O)C1O)([C]#[N+]CCCCC(=O)NC1C(O)OC(CO)C(O)C1O)([C]#[N+]CCCCC(=O)NC1C(O)OC(CO)C(O)C1O)([C]#[N+]CCCCC(=O)NC1C(O)OC(CO)C(O)C1O)[C]#[N+]CCCCC(=O)NC1C(O)OC(CO)C(O)C1O)NC1C(O)OC(CO)C(O)C1O (centres unmarked) [[^99mTc-(CN4DG)6]^+]
Blood uptake ([1]; 30 min): 1.80 ± 0.53 % ID/g | Bone uptake ([1]; 30 min): 0.73 ± 0.23 % ID/g | Heart uptake ([1]; 30 min): 0.70 ± 0.18 % ID/g | Kidney uptake ([1]; 30 min): 4.93 ± 1.11 % ID/g | Liver uptake ([1]; 30 min): 0.66 ± 0.13 % ID/g | Lung uptake ([1]; 30 min): 1.75 ± 0.49 % ID/g | Muscle uptake ([1]; 30 min): 0.57 ± 0.18 % ID/g | Small intestine uptake ([1]; 30 min): 1.06 ± 0.33 % ID/g | Spleen uptake ([1]; 30 min): 0.53 ± 0.12 % ID/g | Stomach uptake ([1]; 30 min): 0.81 ± 0.33 % ID/g | Tumor uptake ([1]; 30 min): 1.72 ± 0.30 % ID/g | Tumor/blood ratio ([1]; 30 min): 0.95 | Tumor/muscle ratio ([1]; 30 min): 3.01 | Blood uptake ([1]; 60 min): 0.30 ± 0.13 % ID/g | Bone uptake ([1]; 60 min): 0.19 ± 0.04 % ID/g | Heart uptake ([1]; 60 min): 0.22 ± 0.08 % ID/g | Kidney uptake ([1]; 60 min): 1.57 ± 0.27 % ID/g | Liver uptake ([1]; 60 min): 0.28 ± 0.06 % ID/g | Lung uptake ([1]; 60 min): 0.40 ± 0.11 % ID/g | Muscle uptake ([1]; 60 min): 0.27 ± 0.17 % ID/g | Small intestine uptake ([1]; 60 min): 0.25 ± 0.11 % ID/g | Spleen uptake ([1]; 60 min): 0.21 ± 0.04 % ID/g | Stomach uptake ([1]; 60 min): 0.23 ± 0.07 % ID/g | Tumor uptake ([1]; 60 min): 0.88 ± 0.09 % ID/g | Tumor/blood ratio ([1]; 60 min): 2.93 | Tumor/muscle ratio ([1]; 60 min): 3.26 | Blood uptake ([1]; 120 min): 0.03 ± 0.01 % ID/g | Bone uptake ([1]; 120 min): 0.13 ± 0.09 % ID/g | Heart uptake ([1]; 120 min): 0.10 ± 0.04 % ID/g | Kidney uptake ([1]; 120 min): 1.24 ± 0.53 % ID/g | Liver uptake ([1]; 120 min): 0.17 ± 0.03 % ID/g | Lung uptake ([1]; 120 min): 0.13 ± 0.02 % ID/g | Muscle uptake ([1]; 120 min): 0.15 ± 0.07 % ID/g | Small intestine uptake ([1]; 120 min): 0.36 ± 0.21 % ID/g | Spleen uptake ([1]; 120 min): 0.11 ± 0.02 % ID/g | Stomach uptake ([1]; 120 min): 0.08 ± 0.01 % ID/g | Tumor uptake ([1]; 120 min): 0.45 ± 0.17 % ID/g | Tumor/blood ratio ([1]; 120 min): 15.00 | Tumor/muscle ratio ([1]; 120 min): 3.00 | Tumor/liver ratio [1]: 2.60 | Log P (lipid-water partition coefficient) [2]: −3.84±0.06

O=C(CC[N+]#[C][99Tc-5]([C]#[N+]CCC(=O)NC1C(O)OC(CO)C(O)C1O)([C]#[N+]CCC(=O)NC1C(O)OC(CO)C(O)C1O)([C]#[N+]CCC(=O)NC1C(O)OC(CO)C(O)C1O)([C]#[N+]CCC(=O)NC1C(O)OC(CO)C(O)C1O)[C]#[N+]CCC(=O)NC1C(O)OC(CO)C(O)C1O)NC1C(O)OC(CO)C(O)C1O (centres unmarked) [[^99mTc-(CN2DG)6]^+]
Blood uptake ([1]; 30 min): 0.94 ± 0.18 % ID/g | Bone uptake ([1]; 30 min): 0.32 ± 0.07 % ID/g | Heart uptake ([1]; 30 min): 0.34 ± 0.06 % ID/g | Kidney uptake ([1]; 30 min): 3.11 ± 1.04 % ID/g | Liver uptake ([1]; 30 min): 0.35 ± 0.06 % ID/g | Lung uptake ([1]; 30 min): 0.94 ± 0.18 % ID/g | Muscle uptake ([1]; 30 min): 0.27 ± 0.07 % ID/g | Small intestine uptake ([1]; 30 min): 0.44 ± 0.16 % ID/g | Spleen uptake ([1]; 30 min): 0.31 ± 0.09 % ID/g | Stomach uptake ([1]; 30 min): 0.38 ± 0.15 % ID/g | Tumor uptake ([1]; 30 min): 1.09 ± 0.23 % ID/g | Tumor/blood ratio ([1]; 30 min): 1.16 | Tumor/muscle ratio ([1]; 30 min): 4.04 | Blood uptake ([1]; 60 min): 0.20 ± 0.05 % ID/g | Bone uptake ([1]; 60 min): 0.10 ± 0.02 % ID/g | Heart uptake ([1]; 60 min): 0.12 ± 0.02 % ID/g | Kidney uptake ([1]; 60 min): 1.17 ± 0.27 % ID/g | Liver uptake ([1]; 60 min): 0.18 ± 0.02 % ID/g | Lung uptake ([1]; 60 min): 0.26 ± 0.06 % ID/g | Muscle uptake ([1]; 60 min): 0.08 ± 0.00 % ID/g | Small intestine uptake ([1]; 60 min): 0.19 ± 0.03 % ID/g | Spleen uptake ([1]; 60 min): 0.13 ± 0.02 % ID/g | Stomach uptake ([1]; 60 min): 0.19 ± 0.07 % ID/g | Tumor uptake ([1]; 60 min): 0.50 ± 0.07 % ID/g | Tumor/blood ratio ([1]; 60 min): 2.78 | Tumor/muscle ratio ([1]; 60 min): 6.25 | Blood uptake ([1]; 120 min): 0.01 ± 0.00 % ID/g | Bone uptake ([1]; 120 min): 0.05 ± 0.02 % ID/g | Heart uptake ([1]; 120 min): 0.05 ± 0.02 % ID/g | Kidney uptake ([1]; 120 min): 0.68 ± 0.11 % ID/g | Liver uptake ([1]; 120 min): 0.09 ± 0.01 % ID/g | Lung uptake ([1]; 120 min): 0.09 ± 0.04 % ID/g | Muscle uptake ([1]; 120 min): 0.04 ± 0.01 % ID/g | Small intestine uptake ([1]; 120 min): 0.12 ± 0.02 % ID/g | Spleen uptake ([1]; 120 min): 0.07 ± 0.01 % ID/g | Stomach uptake ([1]; 120 min): 0.15 ± 0.06 % ID/g | Tumor uptake ([1]; 120 min): 0.25 ± 0.05 % ID/g | Tumor/blood ratio ([1]; 120 min): 25.00 | Tumor/muscle ratio ([1]; 120 min): 6.25 | Tumor/liver ratio [1]: 3.11 | Log P (lipid-water partition coefficient) [2]: −4.26±0.12

O=C(NC1C(O)O[C@H](CO)[C@@H](O)[C@@H]1O)C1C[S][Tc]23(=[O])[S]C[C@@H](C(=O)NC4C(O)O[C@H](CO)[C@@H](O)[C@@H]4O)[N]2CC[N]13 (some centres unmarked) [^99mTc-ECDG]
Blood uptake [4]: 1.61 ± 0.39 % ID/g | Kidney uptake [4]: 6.73 ± 1.84 % ID/g | Liver uptake [4]: 5.67 ± 2.08 % ID/g | Muscle uptake [4]: 0.26 ± 0.07 % ID/g | Tumor uptake [4]: 0.79 ± 0.16 % ID/g | Tumor/blood ratio [4]: 0.49 | Tumor/liver ratio [4]: 0.14 | Tumor/muscle ratio [4]: 3.04
